Columns and labels:
[1] = system: transient focal cerebral ischemia (tMCAO) in mice; test: Brain infarct volume and swelling after transient focal cerebral ischemia (tMCAO); assay type: in vivo, mouse; details: 24 h reperfusion, i.p.; for hemispheric edema (hemisphere swelling) / infarct volume: normotensive C57BL/6j mice, half dose at 3 h and 8 h reperfusion, BMT 10, STS5 13, STS66 12 mg/kg/day, mean±SD; for infarct volume: male and female combined
Description: FIGS. 1A-1C: Efficacy of NKCC1 inhibitors in reducing ischemic infarction, cerebral edema, and the post-stroke survival in normotensive mice after tMCAO (see Example 3). (1A) Experimental protocol and data collection. Transient middle cerebral artery occlusion (tMCAO) was induced in normal C57/b6 mice. DMSO, BMT (10 mg/kg body weight), STS5 (13 mg/kg) or STS66 (12 mg/kg) was administered via intraperitoneal injection (i.p.) as described in method. (1 B) Representative TTC staining images in normotensive mice at 24 h reperfusion with quantitative analysis of infarct volume. Data are mean±SD, n=6-13 (male, n=3-9; female, n=3-4, *p<0.05). Scale: 5 mm. (1C) Percentage hemisphere swelling at 24 h reperfusion. Data are mean±SD, n=6-13, *p<0.05. (1D) Body weight change during 1-14 days after tMCAO. Data are mean±SD, n=5-9 (male, n=4; female, n=2, *p<0.05). (1E) Survival curve during 1-14 day after tMCAO. Data are mean±SD, n=5-9 (male, n=3-7; female, n=2, *p<0.05).
(§1) Transient focal cerebral ischemia was induced in mice by intraluminal occlusion of the left middle cerebral artery (MCA) for 50 min as described previously (Chen H et al., 2005). Mice were anesthetized with 3% isoflurane in 70%: 30% N2O/O2 until they were unresponsive to the tail pinch test. Animals were then fitted with a nose cone blowing 1.5% isoflurane for anesthesia maintenance. The left common carotid artery was exposed and the occipital artery branches of the external carotid artery were isolated and coagulated. The internal carotid artery was isolated and the extracranial branch was dissected and ligated. A rubber silicon-coated monofilament suture (6-0) was introduced into the internal carotid artery lumen and gently advanced approximately 8-9 mm to block the MCA blood flow for 50 min. The rectal temperature was maintained at 37.0±0.5° C. during surgery through a temperature-controlled heating pad. Achievement of ischemia was confirmed by monitoring regional cerebral blood flow (rCBF) with laser speckle contrast imager (Pericam). For reperfusion, the suture was withdrawn after the MCAO. The incision was closed and the mouse recovered under a heating lamp to maintain the core temperature (36.0-37.0° C.) during the 30-60 min recovery period. After recovery, animals were returned to their cages with free access to food and water.
(§2) Vehicle: DMSO (2 ml/kg body weight/day), the NKCC1 inhibitor bumetanide (BMT, 10 mg/kg body weight/day in DMSO), bumetanide's prodrug STS5 (13 mg/kg body weight/day in DMSO), or the novel NKCC1 inhibitor STS66 according to the invention (12 mg/kg body weight/day in DMSO) was administered via intraperitoneal injection (i.p). The initial half dose of the drugs (BMT, STS5, STS66) was given at 3 h after the onset of reperfusion and the second half dose at 8 h reperfusion in the tMCAO model.
At 24 h post-reperfusion, mice were anesthetized with 5% isoflurane and then decapitated. Coronal brain slices (2 mm thickness) were stained with 1% 2,3,5-triphenyltetrazolium chloridemonohydrate (TTC) for 20-30 min and brain slices were scanned (Begum G et al., 2015). Ischemic lesions were traced in each slice in a blinded manner, and the total volume of infarction was calculated with correction for edema, as described by Swanson et al., 1990 using ImageJ software. Infarct areas were summed across all slices and multiplied by slice thickness to yield total infarct volume (mm^3). Brain swelling was determined with the following formula. For tMCAO: swelling (% contralateral hemispheric volume)=[(ipsilateral hemispheric volume)−(contralateral hemispheric volume)]/(contralateral hemispheric volume)×100, as described before (Guo Q G et al., 2009; Sunghee Cho et al., 2005).

[2] = system: transient focal cerebral ischemia (tMCAO) in mice; test: Adhesive tape removal test after tMCAO; assay type: in vivo, mouse; details: days not given (tests on days 1-14); for adhesive tape removal time, last value of the span: end of the span 'x to y'; for adhesive tape removal time, first value of the given span: start of the span 'x to y'
Description: FIGS. 2A-2D: Efficacy of NKCC1 inhibitors on improving neurological function in mice after tMCAO (see Example 3). (A) Neurological score, (B) corner test, (C) foot-fault test, and (D)-(E) adhesive tape test during 1-14 day after tMCAO. Data are mean±SD, n=4-9. *p<0.05 for DMSO vs STS66, **p<0.05 for DMSO vs STS5, ***p<0.05 for DMSO vs BMT, #p<0.05 for BMT vs STS66, ###p<0.05 for STS5 vs STS66.
as §1, §2
An adhesive tape removal test was used to measure somatosensory deficits. Two pieces of adhesive tape (4 mm×3 mm) were attached to the forepaws in an alternating sequence and with equal pressure by the experimenter before each trial. The removal time is defined as the time at which the animal removes the tape. The trial ended after the adhesive patch was removed or after 2 min had elapsed. Pre-operative training was carried twice per day for three days and were tested on day 1, 2, 3, 5, 7, 10 and 14 days after tMCAO (Bouet V, et al., 2009).

| Structure (SMILES) | hemispheric edema (hemisphere swelling) [1] [%] | infarct volume [1] [mm^3] | adhesive tape removal time, last value of the span [2] [s] | adhesive tape removal time, first value of the given span [2] [s] | infarct volume in female mice ([1]; female mice only, STS5 13, STS66 12 mg/kg/day) [mm^3] |
| --- | --- | --- | --- | --- | --- |
| CCCCNc1cc(C(=O)O)cc(S(N)(=O)=O)c1Oc1ccccc1 [BMT, 3-(butylamino)-4-phenoxy-5-sulfamoylbenzoic acid, reference compound] | 15.4±5.9 | 65.2±21.7 | 17.4 ± 7.6 | 109.4 ± 10.8 | – |
| CCCCNc1cc(CNCC(F)(F)F)cc(S(N)(=O)=O)c1Oc1ccccc1 [STS66, 3-(Butylamino)-2-phenoxy-5-[(2,2,2-trifluoroethylamino)methyl]benzenesulfonamide] | 14.1±6.1 | 69.7±17.9 | 10.3 ± 5.2 | 29.7 ± 36.0 | 74.3±9.2 |
